Source: US20160209428A1, “DIAGNOSTIC AND PREDICTIVE METABOLITE PATTERNS FOR DISORDERS AFFECTING THE BRAIN AND NERVOUS SYSTEM” (THE REGENTS OF THE UNIVERSITY OF CALIFORNIA, priority 2013, published 2016)

What was measured:
[1] = test system: Fragile X (Fmr1) knockout mouse; test: T-maze spontaneous alternation (novelty preference), Fragile X model; assay type: in vivo; details: Fmr1 KO mice, weekly suramin 20 mg/kg ip
Excerpt: A preference for novelty was estimated as spontaneous alternation behavior in the T-maze.

[2] = test system: maternal immune activation (MIA) mouse model; test: Social approach (social preference), MIA model; assay type: in vivo
Procedure: To initiate the MIA model, pregnant dams were given two intraperitoneal injections of Poly(I:C) (Potassium salt; Sigma-Aldrich, St. Louis, Mo., USA, Cat no. P9582; >99% pure; <1% mononucleotide content). These were quantified by UV spectrophotometry. One unit (U) of poly(IC) was defined as 1 absorbance unit at 260 nm. Typically, 1U=12 μg of RNA. 0.25U/g [3 mg kg^−1] of poly(IC) was given on E12.5 and 0.125U g^−1 (1.5 mg kg^−1) on E17.5 as previously described. Contemporaneous control pregnancies were produced by timed matings and randomized assignment of pregnant dams to saline injection (5 μl g^−1 intraperitoneally (i.p.)) on E12.5 and E17.5.
Offspring of timed matings were weaned at 3-4 weeks of age into cages of two to four animals. No mice were housed in isolation. Only males were evaluated in these studies. Littermates were identified by ear tags and distributed into different cages in order to minimize litter and dam effects. To avoid chance differences in groups selected for single-dose treatment, the saline and poly(IC) exposure groups were each balanced according to their social approach scores at 2.25 months. […] Beginning 2 days later, behaviors were evaluated. […]
Social behavior in mice can be quantified as the time spent interacting with a novel (‘stranger’) mouse compared with the total time spent interacting with either a mouse or a novel inanimate object.

[3] = Suramin quantitation in plasma and brain tissues by LC-MS/MS; assay type: in vivo, mouse
Procedure: Offspring of timed matings were weaned at 3-4 weeks of age into cages of two to four animals. No mice were housed in isolation. Only males were evaluated in these studies. Littermates were identified by ear tags and distributed into different cages in order to minimize litter and dam effects. […] Beginning 2 days later, behaviors were evaluated.
Tissue samples (brainstem, cerebrum and cerebellum) were ground into powder under liquid nitrogen in a pre-cooled mortar. Powdered tissue (15-50 mg) was weighed and mixed with the internal standard trypan blue to a final concentration of 5 μM (pmol mg^−1) and incubated at room temperature for 10 min to permit metabolite interaction with binding proteins. Nine volumes of methanol:acetonitrile:H2O (43:43:16) pre-chilled to −20° C. was added to produce a final solvent ratio of 40:40:20, and the samples were deproteinated and macromolecules removed by precipitation on crushed ice for 30 min. The mixture was centrifuged at 16 000 g for 10 min at 4° C. and the supernatant was transferred to a new tube and kept at −80° C. for further LC-MS/MS (liquid chromatography-tandem mass spectrometry) analysis. For plasma, 90 μl was used, to which 10 μl of 50 μM stock of trypan blue was added to achieve an internal standard concentration of 5 μM. This was incubated at room temperature for 10 min to permit metabolite interaction with binding proteins, then extracted with 4 volumes (400 μl) of pre-chilled methanol:acetonitrile (50:50) to produce a final concentration of 40:40:20 (methanol:acetonitrile:H2O) and precipitated on ice for 10 min. Other steps were the same as for solid tissue extraction.
Ten microliters of extract were injected onto a Kinetix pentafluorophenyl column (150×2.1 mm, 2.6 μm; Phenomenex, Torrance, Calif., USA) held at 30° C. for chromatographic separation. The mobile phase A was water with 20 mM ammonium acetate (NH4OAC; pH 7) and mobile phase B was methanol with 20 mM NH4OAC (pH 7). […] The flow rate was 300 μl min^−1. All the samples were kept at 4° C. during analysis. […] The electrospray ionization source parameters were set as follows: source temperature 500° C.; curtain gas 30; ion source gas 1, 35; ion source gas 2 35; spray voltage −4500V. Analyst 1.6.1 was used for data acquisition and analysis. N=4-6 per tissue. Results are reported as means±s.e.m. in absolute μM (pmol μl^−1) concentration for plasma, and pmol mg^−1 wet weight for tissues.
After completing the behavioral studies described above, mass spectrometry was used to measure drug levels in plasma, cerebrum, cerebellum and brainstem following a 5-week period of drug washout.

[4] = mice, after a single dose; cited from earlier work
[5] = test system: maternal immune activation (MIA) mouse model; test: T-maze spontaneous alternation, MIA model; assay type: in vivo; details: MIA animals
Procedure: Novelty preference was tested as spontaneous alternation behavior in the T-maze. […] (N=8-13, 5.25-month-old males per group).
Novelty preference is an innate feature of normal rodent and human behavior and a predictor of socialization and communication growth in children with ASD. The loss or suppression of novelty preference in children with ASD is associated with the phenomenon known as insistence on sameness. Preference for novelty was estimated as spontaneous alternation behavior in the T-maze. The T-maze can also be used to estimate spatial working memory, especially when food-motivated. […] These deficits were normalized after a single dose of suramin.

[6] = 2 days after 20 mg kg^−1 i.p., control (Sal-Sur) or MIA (PIC-Sur) animals

## Cc1ccc(C(=O)Nc2ccc(S(=O)(=O)O)c3cc(S(=O)(=O)O)cc(S(=O)(=O)O)c23)cc1NC(=O)c1cccc(NC(=O)Nc2cccc(C(=O)Nc3cc(C(=O)Nc4ccc(S(=O)(=O)O)c5cc(S(=O)(=O)O)cc(S(=O)(=O)O)c45)ccc3C)c2)c1 [Suramin, suramin]
[1]
  deficient novelty preference (spontaneous alternation in T-maze): normalized
[2]; 6.5-month-old MIA adults, single dose suramin 20 mg kg^−1 i.p.
  social abnormalities: completely reversed
[2]; MIA animals, 5 weeks after single dose
  social behavior five weeks after suramin washout: small residual benefit
[3]; 2 days after 20 mg kg^−1 i.p.
  brainstem suramin: 5.15 pmol/mg
[3]; [6]
  suramin in cerebellum: < 0.10 pmol mg^−1 wet weight
  suramin in cerebrum: < 0.10 pmol mg^−1 wet weight
[3]; after 5 weeks of drug washout
  suramin in any tissue (plasma, cerebrum, cerebellum, brainstem): No suramin was detected
[3]; male, mouse, plasma, ip, 2 days after 20 mg kg^−1 i.p.
  concentration at 2 days: 7.64 µM
[4]
  plasma half-life: 1 week
[5]; 5 weeks after single dose
  novelty preference five weeks after suramin washout: no residual benefit remained
[5]; single dose of suramin
  deficient novelty preference (spontaneous alternation in T-maze): normalized
